Measurements taken from ChEMBL document CHEMBL3399942, “Identification and optimization of pyridazinones as potent and selective c-Met kinase inhibitors” (Bioorg Med Chem Lett, 2015).
Each block holds one compound with its values, some of them ahead of it. Activity calls are given as the source filed them. No cut-off for these calls is given here.

How the values were obtained:
[1] = target: T1, Hepatocyte growth factor receptor (Homo sapiens, UniProt P08581); assay: Inhibition of GST-His6-tagged recombinant human c-Met kinase domain (956 to 1390) after 60 mins by anoff-chip mobility shift assay
T1 sequence (P08581 whole entry, the tested form may be a part): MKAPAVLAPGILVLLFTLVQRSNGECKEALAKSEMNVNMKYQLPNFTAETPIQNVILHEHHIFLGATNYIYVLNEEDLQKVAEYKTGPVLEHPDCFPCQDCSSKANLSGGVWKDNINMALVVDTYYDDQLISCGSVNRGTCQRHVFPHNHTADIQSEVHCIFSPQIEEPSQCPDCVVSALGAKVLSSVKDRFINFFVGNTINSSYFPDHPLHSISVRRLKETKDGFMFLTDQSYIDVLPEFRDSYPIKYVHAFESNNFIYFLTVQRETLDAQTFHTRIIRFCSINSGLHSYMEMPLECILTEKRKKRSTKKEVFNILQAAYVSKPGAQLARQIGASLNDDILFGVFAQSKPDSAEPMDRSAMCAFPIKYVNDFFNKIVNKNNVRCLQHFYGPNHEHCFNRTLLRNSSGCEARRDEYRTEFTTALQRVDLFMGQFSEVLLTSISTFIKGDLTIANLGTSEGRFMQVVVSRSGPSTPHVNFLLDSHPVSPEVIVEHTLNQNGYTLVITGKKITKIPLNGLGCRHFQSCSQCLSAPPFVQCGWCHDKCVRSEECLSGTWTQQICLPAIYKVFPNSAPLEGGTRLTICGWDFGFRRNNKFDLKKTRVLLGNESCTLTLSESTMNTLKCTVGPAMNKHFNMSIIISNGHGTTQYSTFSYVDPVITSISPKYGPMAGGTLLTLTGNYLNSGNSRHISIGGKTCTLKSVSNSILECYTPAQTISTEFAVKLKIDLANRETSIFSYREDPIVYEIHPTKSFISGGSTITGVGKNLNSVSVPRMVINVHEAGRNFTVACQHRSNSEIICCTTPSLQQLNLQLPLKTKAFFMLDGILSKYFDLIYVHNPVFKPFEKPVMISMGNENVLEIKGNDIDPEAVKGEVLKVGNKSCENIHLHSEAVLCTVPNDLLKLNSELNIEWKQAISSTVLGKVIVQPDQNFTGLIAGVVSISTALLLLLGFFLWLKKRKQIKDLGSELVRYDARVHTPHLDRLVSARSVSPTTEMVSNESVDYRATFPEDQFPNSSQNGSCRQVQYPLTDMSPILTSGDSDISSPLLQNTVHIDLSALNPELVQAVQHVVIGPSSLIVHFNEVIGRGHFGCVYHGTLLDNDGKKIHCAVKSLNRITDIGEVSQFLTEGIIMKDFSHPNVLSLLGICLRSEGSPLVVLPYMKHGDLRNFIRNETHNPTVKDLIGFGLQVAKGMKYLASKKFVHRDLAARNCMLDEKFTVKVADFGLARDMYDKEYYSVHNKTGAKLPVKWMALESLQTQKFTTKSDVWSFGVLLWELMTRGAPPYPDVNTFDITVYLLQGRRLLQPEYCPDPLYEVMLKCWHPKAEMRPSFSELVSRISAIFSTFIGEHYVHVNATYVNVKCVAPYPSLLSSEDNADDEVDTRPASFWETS

[2] = target: T1, Hepatocyte growth factor receptor; assay: Inhibition of c-Met kinase in human A549 cells assessed as inhibition of phosphorylation after 45 mins by electrochemiluminescence assay
[3] = Clearance in NMRI mouse at 0.2 mg/kg, iv and 0.5 mg/kg, po by LC/MS/MS analysis; format: ADME, organism-based; conditions: in vivo
[4] = Oral bioavailability in NMRI mouse at 0.5 mg/kg by LC/MS/MS analysis; format: ADME, organism-based; conditions: in vivo
[5] = Clearance in NMRI mouse at 2 mg/kg, iv after 24 hrs by LC/MS/MS analysis; format: ADME, organism-based; set-up: dose 2 mg/kg, route intravenous; conditions: in vivo
[6] = Volume of distribution at steady state in NMRI mouse at 2 mg/kg, iv after 24 hrs by LC/MS/MS analysis; format: ADME, organism-based; set-up: dose 2 mg/kg, route intravenous; conditions: in vivo, read-out: Vdss
[7] = Half life in NMRI mouse at 2 mg/kg, iv after 24 hrs by LC/MS/MS analysis; format: ADME, organism-based; set-up: dose 2 mg/kg, route intravenous; conditions: in vivo
[8] = Cmax in NMRI mouse at 5 mg/kg, po after 24 hrs by LC/MS/MS analysis; format: ADME, organism-based; set-up: dose 5 mg/kg, route oral; conditions: in vivo
[9] = Oral bioavailability in NMRI mouse at 5 mg/kg after 24 hrs by LC/MS/MS analysis; format: ADME, organism-based; conditions: in vivo
[10] = Clearance in Wistar rat at 3 mg/kg, iv after 24 hrs by LC/MS/MS analysis; format: ADME, organism-based; set-up: dose 3 mg/kg, route intravenous; conditions: in vivo
[11] = Volume of distribution at steady state in Wistar rat at 3 mg/kg, iv after 24 hrs by LC/MS/MS analysis; format: ADME, organism-based; set-up: dose 3 mg/kg, route intravenous; conditions: in vivo, read-out: Vdss
[12] = Half life in Wistar rat at 3 mg/kg, iv after 24 hrs by LC/MS/MS analysis; format: ADME, organism-based; set-up: dose 3 mg/kg, route intravenous; conditions: in vivo
[13] = Cmax in Wistar rat at 6 mg/kg, po after 24 hrs by LC/MS/MS analysis; format: ADME, organism-based; set-up: dose 6 mg/kg, route oral; conditions: in vivo
[14] = Oral bioavailability in Wistar rat at 6 mg/kg after 24 hrs by LC/MS/MS analysis; format: ADME, organism-based; conditions: in vivo
[15] = Clearance in cynomolgus monkey at 2 mg/kg, iv after 72 hrs by LC/MS/MS analysis; format: ADME, organism-based, Macaca fascicularis; set-up: dose 2 mg/kg, route intravenous; conditions: in vivo
[16] = Volume of distribution at steady state in cynomolgus monkey at 2 mg/kg, iv after 72 hrs by LC/MS/MS analysis; format: ADME, organism-based, Macaca fascicularis; set-up: dose 2 mg/kg, route intravenous; conditions: in vivo, read-out: Vdss
[17] = Half life in cynomolgus monkey at 2 mg/kg, iv after 72 hrs by LC/MS/MS analysis; format: ADME, organism-based, Macaca fascicularis; set-up: dose 2 mg/kg, route intravenous; conditions: in vivo
[18] = Cmax in cynomolgus monkey at 5 mg/kg, po after 72 hrs by LC/MS/MS analysis; format: ADME, organism-based, Macaca fascicularis; set-up: dose 5 mg/kg, route oral; conditions: in vivo
[19] = Oral bioavailability in cynomolgus monkey at 5 mg/kg after 72 hrs by LC/MS/MS analysis; format: ADME, organism-based, Macaca fascicularis; conditions: in vivo
[20] = Clearance in beagle dog at 2 mg/kg, iv after 48 hrs by LC/MS/MS analysis; format: ADME, organism-based, Canis lupus familiaris; set-up: dose 2 mg/kg, route intravenous; conditions: in vivo
[21] = Volume of distribution at steady state in beagle dog at 2 mg/kg, iv after 48 hrs by LC/MS/MS analysis; format: ADME, organism-based, Canis lupus familiaris; set-up: dose 2 mg/kg, route intravenous; conditions: in vivo, read-out: Vdss
[22] = Half life in beagle dog at 2 mg/kg, iv after 48 hrs by LC/MS/MS analysis; format: ADME, organism-based, Canis lupus familiaris; set-up: dose 2 mg/kg, route intravenous; conditions: in vivo
[23] = Cmax in beagle dog at 5 mg/kg, po after 48 hrs by LC/MS/MS analysis; format: ADME, organism-based, Canis lupus familiaris; set-up: dose 5 mg/kg, route oral; conditions: in vivo
[24] = Oral bioavailability in beagle dog at 5 mg/kg after 48 hrs by LC/MS/MS analysis; format: ADME, organism-based, Canis lupus familiaris; conditions: in vivo
[25] = Fraction unbound in NMRI mouse plasma; format: ADME, cell-free
[26] = Fraction unbound in Wistar rat plasma; format: ADME, cell-free
[27] = Fraction unbound in cynomolgus monkey plasma; format: ADME, cell-free, Macaca fascicularis
[28] = Fraction unbound in beagle dog plasma; format: ADME, cell-free, Canis lupus familiaris
[29] = Fraction unbound in human plasma; format: ADME, cell-free
[30] = Plasma protein binding in human at 10 uM; format: ADME, cell-free; conditions: read-out: PPB (converted)
[31] = Plasma protein binding in human at 0.3 uM; format: ADME, cell-free; conditions: read-out: PPB (converted)
EBC-1 = assay: Antitumor activity against human EBC1 cells xenografted in CD-1 nude mouse assessed as tumor regression at 15 mg/kg, po qd administered for 5 days on and 2 days off up to 32 days; format: functional, organism-based; set-up: dose 15 mg/kg
[32] = Toxicity in po dosed CD-1 nude mouse xenografted with human EBC1 cells administered qd for 5 days on and 2 days off up to 32 days; format: organism-based; conditions: in vivo
Mus musculus = assay: Toxicity in CD-1 nude mouse xenografted with human EBC1 cells assessed as body weight loss at 15 mg/kg, po qd administered for 5 days on and 2 days off up to 32 days; format: organism-based; set-up: dose 15 mg/kg, route oral; conditions: in vivo
[33] = Lipophilicity, log D of the compound; format: physicochemical; conditions: octanol/water
Phosphodiesterase 3 [34] = target: T2, Phosphodiesterase 3 (Homo sapiens, UniProt Q14432+Q13370); assay: Inhibition of PDE3 (unknown origin); format: protein assay
Phosphodiesterase 4 [35] = target: T3, Phosphodiesterase 4 (Homo sapiens, UniProt P27815+Q08499+Q07343+Q08493); assay: Inhibition of PDE4 (unknown origin); format: protein assay
Phosphodiesterase 3 [36] = target: T2, Phosphodiesterase 3; assay: Inhibition of PDE3 (unknown origin) at 10 uM; format: protein assay
Phosphodiesterase 4 [37] = target: T3, Phosphodiesterase 4; assay: Inhibition of PDE4 (unknown origin) at 10 uM; format: protein assay
[38] = Aqueous solubility of the compound in phosphate buffer at pH 7.4; format: physicochemical

Structure (SMILES): Cc1cnc(-c2cccc(Cn3nc(-c4cc(F)cc(F)c4)ccc3=O)c2)[nH]1
- IC50 [1]: 5300 nM

Structure (SMILES): Cc1nc(-c2cccc(Cn3nc(-c4cc(F)cc(F)c4)ccc3=O)c2)no1
- IC50 [1]: 800 nM

Structure (SMILES): CN1CCC(COc2cnc(-c3cccc(Cn4nc(-c5cccc(C#N)c5)ccc4=O)c3)nc2)CC1 [TEPOTINIB]
- clearance [3]: 60 mL/min/kg
- bioavailability [4]: 34%
- clearance [5]: 66.7 mL/min/kg
- Vd [6]: 8.2 L/kg
- half-life [7]: 2.1 h
- Cmax [8]: 62.2 ng/mL
- bioavailability [9]: 41%
- clearance [10]: 78.3 mL/min/kg
- Vd [11]: 20 L/kg
- half-life [12]: 3.2 h
- Cmax [13]: 66 ng/mL
- bioavailability [14]: 55%
- clearance [15]: 12.2 mL/min/kg
- Vd [16]: 9.6 L/kg
- half-life [17]: 10 h
- Cmax [18]: 55.5 ng/mL
- bioavailability [19]: 25%
- clearance [20]: 55 mL/min/kg
- Vd [21]: 26 L/kg
- half-life [22]: 7.6 h
- Cmax [23]: 22.4 ng/mL
- bioavailability [24]: 22%
- fraction unbound [25]: 0.028
- fraction unbound [26]: 0.041
- fraction unbound [27]: 0.052
- fraction unbound [28]: 0.064
- fraction unbound [29]: 0.023
- fraction unbound at 10 µM [30]: 0.034
- fraction unbound at 0.3 µM [31]: 0.016
- Activity (EBC-1): Active
- MTD [32]: 15 mg/kg
- Activity (Mus musculus): Non-toxic

Structure (SMILES): CN(C)CCCOC(=O)Nc1cccc(Cn2nc(-c3cc(F)cc(F)c3)ccc2=O)c1
- clearance [3]: 51.7 mL/min/kg
- bioavailability [4]: 30%

Structure (SMILES): CCN(CC)CCCOC(=O)Nc1cccc(CN2N=C(c3ccc(OC)c(OC)c3)CSC2=O)c1
- IC50 [1]: 400 nM
- IC50 [2]: 1100 nM
- clearance [3]: 100 mL/min/kg
- bioavailability [4]: < 5%
- IC50 (Phosphodiesterase 3 [34]): 1500 nM
- IC50 (Phosphodiesterase 4 [35]): 63 nM

Structure (SMILES): O=C(Nc1cccc(Cn2nc(-c3cc(F)cc(F)c3)ccc2=O)c1)OCCCN1CCOCC1
- inhibition (Phosphodiesterase 3 [36]): 8%
- inhibition (Phosphodiesterase 4 [37]): 19%

Structure (SMILES): CN(C)CCCOC(=O)Nc1cccc(Cn2nc(-c3ccc(F)cc3)ccc2=O)c1
- inhibition (Phosphodiesterase 3 [36]): 28%
- inhibition (Phosphodiesterase 4 [37]): 8%

Structure (SMILES): Cc1cnc(-c2cccc(Cn3nc(-c4cc(F)cc(F)c4)ccc3=O)c2)nc1
- solubility [38]: < 1 µg/mL

Structure (SMILES): CN(C)CCCOC(=O)Nc1cccc(CN2N=C(c3cc(F)cc(F)c3)CSC2=O)c1
- IC50 [1]: 23 nM
- IC50 [2]: 78 nM
- clearance [3]: 56.7 mL/min/kg
- bioavailability [4]: 25%

Structure (SMILES): CN(C)CCCOc1cnc(-c2cccc(Cn3nc(-c4cc(F)cc(F)c4)ccc3=O)c2)nc1
- logD [33]: 3

Structure (SMILES): CCN(CC)CCCOC(=O)Nc1cccc(CN2N=C(c3ccc(Cl)cc3)CSC2=O)c1
- IC50 [1]: 90 nM
- inhibition (Phosphodiesterase 3 [36]): 1%
- inhibition (Phosphodiesterase 4 [37]): 49%

Results, then the compound that gave them:

- IC50 [1]: 1 nM
- IC50 [2]: 34 nM
- clearance [3]: 35 mL/min/kg
- bioavailability [4]: 35%
Structure (SMILES): N#Cc1cccc(-c2ccc(=O)n(Cc3cccc(-c4ncc(OCCN5CCOCC5)cn4)c3)n2)c1

- clearance [3]: 102 mL/min/kg
- bioavailability [4]: 32%
- logD [33]: 2.4
Structure (SMILES): CN(C)CCCOc1cnc(-c2cccc(Cn3nc(-c4cccc(C#N)c4)ccc3=O)c2)nc1

- IC50 [1]: 6.5 nM
- IC50 [2]: 140 nM
- logD [33]: 2.6
Structure (SMILES): CN(C)CCCOc1cnc(-c2cccc(Cn3nc(-c4cccc(F)c4)ccc3=O)c2)nc1

- logD [33]: 2.6
Structure (SMILES): COc1cccc(-c2ccc(=O)n(Cc3cccc(-c4ncc(OCCCN(C)C)cn4)c3)n2)c1

- logD [33]: 1.4
Structure (SMILES): CN(C)CCCOc1cnc(-c2cccc(Cn3nc(-c4cccnc4)ccc3=O)c2)nc1
